This is an account of results in patent US11208412B2 (DAEGU-GYEONGBUK MEDICAL INNOVATION FOUNDATION, priority 2017, dated 2021).

What all share (assay): Kinase selectivity, DiscoverX scanMAX Kinase assay panel (% control)
What all share (format): binding

Assay [1] concerns the target T1, kinases of the scanMAX Kinase assay panel (Homo sapiens, UniProt Q8WTQ7).
T1 construct: purchased DiscoverX Co. (contract measurement) scanMAX Kinase assay panel
T1 sequence (Q8WTQ7 1-553): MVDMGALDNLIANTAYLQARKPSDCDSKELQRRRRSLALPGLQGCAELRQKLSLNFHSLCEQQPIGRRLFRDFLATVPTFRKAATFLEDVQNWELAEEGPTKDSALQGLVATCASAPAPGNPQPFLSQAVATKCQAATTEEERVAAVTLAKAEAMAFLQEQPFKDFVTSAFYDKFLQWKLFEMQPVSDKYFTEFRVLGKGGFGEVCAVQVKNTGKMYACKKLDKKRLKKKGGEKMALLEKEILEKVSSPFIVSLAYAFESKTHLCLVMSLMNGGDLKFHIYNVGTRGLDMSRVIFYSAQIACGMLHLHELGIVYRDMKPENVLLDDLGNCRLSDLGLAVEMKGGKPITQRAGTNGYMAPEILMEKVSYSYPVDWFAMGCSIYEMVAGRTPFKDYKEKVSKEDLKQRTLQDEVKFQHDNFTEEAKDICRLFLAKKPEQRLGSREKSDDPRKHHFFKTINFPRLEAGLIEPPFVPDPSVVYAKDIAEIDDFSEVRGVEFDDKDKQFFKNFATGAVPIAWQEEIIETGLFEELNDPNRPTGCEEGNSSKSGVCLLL
To be noted: GRK7; 1 uM. The procedure, abridged:
(§1)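 A 1 uM DMSO solution of compound was applied across the panel kinases, and results were expressed as % control relative to DMSO (100%) and a positive control (0%).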

The target in assay [2] is T2, kinases of the scanMAX Kinase assay panel (Homo sapiens, UniProt P23458).
T2 construct: purchased DiscoverX Co. (contract measurement) scanMAX Kinase assay panel
To be noted: 1 uM. Put shortly:
as §1

Assay [3] addresses T3, kinases of the scanMAX Kinase assay panel (Homo sapiens, UniProt P00533, G719C).
T3 construct: purchased DiscoverX Co. (contract measurement) scanMAX Kinase assay panel
To be noted: EGFR(G719C); 1 uM. Put shortly:
as §1

For assay [4], the target named is T4, kinases of the scanMAX Kinase assay panel (Homo sapiens, UniProt P21802).
T4 construct: purchased DiscoverX Co. (contract measurement) scanMAX Kinase assay panel
To be noted: FGFR2; 1 uM. Put shortly:
as §1

The target in assay [5] is T5, kinases of the scanMAX Kinase assay panel (Homo sapiens, UniProt P20794).
T5 construct: purchased DiscoverX Co. (contract measurement) scanMAX Kinase assay panel
T5 sequence (P20794 1-623): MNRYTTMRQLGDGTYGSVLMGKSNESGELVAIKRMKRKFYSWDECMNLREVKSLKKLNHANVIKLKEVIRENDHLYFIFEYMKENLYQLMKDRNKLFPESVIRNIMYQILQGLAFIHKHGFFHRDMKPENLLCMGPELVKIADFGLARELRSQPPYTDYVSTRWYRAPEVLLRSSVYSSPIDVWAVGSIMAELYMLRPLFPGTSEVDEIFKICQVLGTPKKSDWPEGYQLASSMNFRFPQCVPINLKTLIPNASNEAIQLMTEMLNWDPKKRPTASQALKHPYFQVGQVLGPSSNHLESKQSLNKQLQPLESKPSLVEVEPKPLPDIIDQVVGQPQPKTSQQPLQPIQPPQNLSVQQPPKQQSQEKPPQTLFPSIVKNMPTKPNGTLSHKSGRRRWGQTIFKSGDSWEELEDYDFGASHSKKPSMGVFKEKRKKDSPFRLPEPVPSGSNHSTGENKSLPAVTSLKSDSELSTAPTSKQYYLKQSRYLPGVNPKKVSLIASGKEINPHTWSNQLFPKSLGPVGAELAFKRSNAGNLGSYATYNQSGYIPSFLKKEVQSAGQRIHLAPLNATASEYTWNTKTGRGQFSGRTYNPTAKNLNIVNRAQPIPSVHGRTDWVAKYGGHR
To be noted: MAK; 1 uM. The procedure, abridged: as §1

Assay [6] addresses T6, kinases of the scanMAX Kinase assay panel (Homo sapiens, UniProt Q16816).
T6 construct: purchased DiscoverX Co. (contract measurement) scanMAX Kinase assay panel
To be noted: PHKG1; 1 uM. Put shortly:
as §1

Assay [7] has as its target T7, kinases of the scanMAX Kinase assay panel (Homo sapiens, UniProt Q8TBX8).
T7 construct: purchased DiscoverX Co. (contract measurement) scanMAX Kinase assay panel
T7 sequence (Q8TBX8 1-421): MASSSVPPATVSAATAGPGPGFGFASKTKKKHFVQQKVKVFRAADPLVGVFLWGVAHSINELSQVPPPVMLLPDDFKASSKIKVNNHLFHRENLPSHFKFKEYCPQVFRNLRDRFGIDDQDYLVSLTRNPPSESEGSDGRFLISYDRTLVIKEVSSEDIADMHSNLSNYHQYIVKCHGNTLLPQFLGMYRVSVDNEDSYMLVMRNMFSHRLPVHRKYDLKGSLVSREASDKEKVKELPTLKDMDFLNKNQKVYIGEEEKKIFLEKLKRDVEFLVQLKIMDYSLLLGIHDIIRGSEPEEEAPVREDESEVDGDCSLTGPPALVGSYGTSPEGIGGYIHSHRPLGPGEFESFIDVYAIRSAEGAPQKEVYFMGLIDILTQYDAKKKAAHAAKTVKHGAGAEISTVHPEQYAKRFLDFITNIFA
To be noted: PIP5K2C; 1 uM. Put shortly:
as §1

For assay [8], the target named is T8, kinases of the scanMAX Kinase assay panel (Homo sapiens, UniProt Q9UEE5).
T8 construct: purchased DiscoverX Co. (contract measurement) scanMAX Kinase assay panel
T8 sequence (Q9UEE5 1-414): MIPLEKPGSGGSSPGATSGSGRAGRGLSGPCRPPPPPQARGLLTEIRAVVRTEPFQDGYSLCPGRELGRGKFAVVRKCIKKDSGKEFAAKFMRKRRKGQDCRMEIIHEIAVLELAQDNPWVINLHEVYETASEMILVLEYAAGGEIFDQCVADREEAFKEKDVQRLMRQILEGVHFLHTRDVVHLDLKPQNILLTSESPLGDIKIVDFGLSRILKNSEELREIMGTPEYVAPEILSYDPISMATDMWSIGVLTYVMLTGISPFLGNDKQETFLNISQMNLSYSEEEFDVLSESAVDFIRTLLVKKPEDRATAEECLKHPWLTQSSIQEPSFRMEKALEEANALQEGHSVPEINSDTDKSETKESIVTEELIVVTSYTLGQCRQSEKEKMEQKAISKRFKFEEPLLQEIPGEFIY
To be noted: DRAK1; 1 uM. Put shortly: as §1

The target in assay [9] is T9, kinases of the scanMAX Kinase assay panel (Homo sapiens, UniProt Q9HBH9).
T9 construct: purchased DiscoverX Co. (contract measurement) scanMAX Kinase assay panel
To be noted: MKNK2; 1 uM. The procedure, abridged: as §1

T3 sequence (P00533 25-1210 G719C): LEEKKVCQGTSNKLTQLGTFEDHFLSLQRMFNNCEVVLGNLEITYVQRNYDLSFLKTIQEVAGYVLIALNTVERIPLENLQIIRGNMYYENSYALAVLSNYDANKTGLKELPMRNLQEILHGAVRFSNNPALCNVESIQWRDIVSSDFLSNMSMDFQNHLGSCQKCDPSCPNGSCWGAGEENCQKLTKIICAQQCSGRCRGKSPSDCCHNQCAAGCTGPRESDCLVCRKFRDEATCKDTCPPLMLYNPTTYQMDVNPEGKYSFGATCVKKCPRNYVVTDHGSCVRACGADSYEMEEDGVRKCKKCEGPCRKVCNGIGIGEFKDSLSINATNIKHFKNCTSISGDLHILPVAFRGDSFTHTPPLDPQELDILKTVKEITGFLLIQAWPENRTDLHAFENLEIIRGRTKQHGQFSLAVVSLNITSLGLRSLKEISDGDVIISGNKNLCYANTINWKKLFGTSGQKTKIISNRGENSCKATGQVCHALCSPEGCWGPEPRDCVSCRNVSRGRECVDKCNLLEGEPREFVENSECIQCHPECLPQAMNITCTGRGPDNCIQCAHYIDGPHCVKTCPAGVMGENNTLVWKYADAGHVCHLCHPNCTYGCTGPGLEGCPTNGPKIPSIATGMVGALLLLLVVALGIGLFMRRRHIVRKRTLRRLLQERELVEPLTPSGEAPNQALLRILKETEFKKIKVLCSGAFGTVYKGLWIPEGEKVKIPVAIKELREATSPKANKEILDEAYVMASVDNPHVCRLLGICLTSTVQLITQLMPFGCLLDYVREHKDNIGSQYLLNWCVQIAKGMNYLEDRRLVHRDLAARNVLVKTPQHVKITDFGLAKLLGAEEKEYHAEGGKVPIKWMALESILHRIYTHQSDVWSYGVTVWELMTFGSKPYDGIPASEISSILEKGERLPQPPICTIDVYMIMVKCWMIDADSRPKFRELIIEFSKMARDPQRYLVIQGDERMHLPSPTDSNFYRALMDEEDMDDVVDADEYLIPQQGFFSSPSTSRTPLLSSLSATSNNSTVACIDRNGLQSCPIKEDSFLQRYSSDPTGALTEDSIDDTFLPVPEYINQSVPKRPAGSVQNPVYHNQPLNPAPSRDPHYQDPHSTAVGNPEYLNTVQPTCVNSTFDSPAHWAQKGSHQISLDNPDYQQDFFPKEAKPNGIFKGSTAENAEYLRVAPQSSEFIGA
T4 sequence (P21802 22-821): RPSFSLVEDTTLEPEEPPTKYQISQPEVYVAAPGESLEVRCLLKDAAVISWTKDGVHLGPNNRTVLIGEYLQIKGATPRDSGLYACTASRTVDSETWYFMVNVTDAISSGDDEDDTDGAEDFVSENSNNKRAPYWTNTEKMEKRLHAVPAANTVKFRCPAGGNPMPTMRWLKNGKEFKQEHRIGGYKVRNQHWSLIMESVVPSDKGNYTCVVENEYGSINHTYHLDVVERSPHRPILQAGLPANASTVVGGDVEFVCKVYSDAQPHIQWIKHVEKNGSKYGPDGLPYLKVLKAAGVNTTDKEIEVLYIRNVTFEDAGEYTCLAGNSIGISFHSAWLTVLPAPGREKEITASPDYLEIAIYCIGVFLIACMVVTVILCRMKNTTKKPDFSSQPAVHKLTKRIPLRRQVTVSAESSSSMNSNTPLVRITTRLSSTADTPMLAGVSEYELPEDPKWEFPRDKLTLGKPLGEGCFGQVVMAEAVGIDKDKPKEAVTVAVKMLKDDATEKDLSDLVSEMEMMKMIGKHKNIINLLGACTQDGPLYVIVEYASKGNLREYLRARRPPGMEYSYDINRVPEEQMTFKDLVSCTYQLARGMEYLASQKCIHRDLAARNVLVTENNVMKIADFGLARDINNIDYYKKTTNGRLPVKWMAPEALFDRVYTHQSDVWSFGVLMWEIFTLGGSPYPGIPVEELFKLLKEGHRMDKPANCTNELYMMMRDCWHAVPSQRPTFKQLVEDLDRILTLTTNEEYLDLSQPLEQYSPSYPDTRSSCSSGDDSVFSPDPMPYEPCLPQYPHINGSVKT
T9 sequence (Q9HBH9 whole entry): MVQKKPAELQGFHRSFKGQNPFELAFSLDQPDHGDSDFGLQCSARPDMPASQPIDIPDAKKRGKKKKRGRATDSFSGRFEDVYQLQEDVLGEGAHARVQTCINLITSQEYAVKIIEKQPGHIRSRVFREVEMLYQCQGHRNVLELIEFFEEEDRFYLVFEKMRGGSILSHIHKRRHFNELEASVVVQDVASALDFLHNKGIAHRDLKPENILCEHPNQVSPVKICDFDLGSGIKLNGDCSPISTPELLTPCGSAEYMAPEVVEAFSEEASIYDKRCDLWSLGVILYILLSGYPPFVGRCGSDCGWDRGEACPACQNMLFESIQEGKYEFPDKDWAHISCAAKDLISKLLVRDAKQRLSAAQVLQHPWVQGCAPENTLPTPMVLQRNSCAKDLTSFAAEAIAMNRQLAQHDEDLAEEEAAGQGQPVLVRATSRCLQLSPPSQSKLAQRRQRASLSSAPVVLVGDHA
T2 sequence (P23458 whole entry): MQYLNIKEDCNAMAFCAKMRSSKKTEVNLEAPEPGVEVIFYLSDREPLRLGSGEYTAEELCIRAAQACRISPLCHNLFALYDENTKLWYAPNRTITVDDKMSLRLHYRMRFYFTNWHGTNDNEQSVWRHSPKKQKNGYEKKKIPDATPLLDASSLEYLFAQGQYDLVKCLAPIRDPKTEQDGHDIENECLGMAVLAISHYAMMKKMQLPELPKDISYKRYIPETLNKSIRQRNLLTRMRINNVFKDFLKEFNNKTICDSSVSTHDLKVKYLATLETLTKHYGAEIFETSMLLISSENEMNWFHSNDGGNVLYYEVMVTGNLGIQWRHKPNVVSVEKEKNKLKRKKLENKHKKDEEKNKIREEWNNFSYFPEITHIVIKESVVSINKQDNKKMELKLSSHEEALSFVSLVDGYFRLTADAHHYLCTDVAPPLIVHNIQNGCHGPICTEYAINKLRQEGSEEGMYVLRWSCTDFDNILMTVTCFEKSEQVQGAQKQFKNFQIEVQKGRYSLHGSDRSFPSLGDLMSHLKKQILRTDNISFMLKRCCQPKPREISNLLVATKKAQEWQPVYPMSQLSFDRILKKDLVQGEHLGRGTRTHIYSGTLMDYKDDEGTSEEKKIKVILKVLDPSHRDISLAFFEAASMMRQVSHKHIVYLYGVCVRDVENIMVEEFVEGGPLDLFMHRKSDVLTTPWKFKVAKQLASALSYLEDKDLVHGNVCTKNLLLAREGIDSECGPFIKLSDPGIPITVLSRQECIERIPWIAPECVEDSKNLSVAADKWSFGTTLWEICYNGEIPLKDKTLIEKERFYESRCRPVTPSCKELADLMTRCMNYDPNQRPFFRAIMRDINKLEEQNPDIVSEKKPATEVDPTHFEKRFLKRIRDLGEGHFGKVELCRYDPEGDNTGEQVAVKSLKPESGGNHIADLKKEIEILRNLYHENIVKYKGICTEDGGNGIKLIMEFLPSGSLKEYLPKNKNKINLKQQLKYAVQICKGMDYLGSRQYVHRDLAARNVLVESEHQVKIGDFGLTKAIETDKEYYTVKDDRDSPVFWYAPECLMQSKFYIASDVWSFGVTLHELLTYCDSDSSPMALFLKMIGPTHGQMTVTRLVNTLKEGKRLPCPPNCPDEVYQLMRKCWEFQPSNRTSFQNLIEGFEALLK
T6 sequence (Q16816 whole entry): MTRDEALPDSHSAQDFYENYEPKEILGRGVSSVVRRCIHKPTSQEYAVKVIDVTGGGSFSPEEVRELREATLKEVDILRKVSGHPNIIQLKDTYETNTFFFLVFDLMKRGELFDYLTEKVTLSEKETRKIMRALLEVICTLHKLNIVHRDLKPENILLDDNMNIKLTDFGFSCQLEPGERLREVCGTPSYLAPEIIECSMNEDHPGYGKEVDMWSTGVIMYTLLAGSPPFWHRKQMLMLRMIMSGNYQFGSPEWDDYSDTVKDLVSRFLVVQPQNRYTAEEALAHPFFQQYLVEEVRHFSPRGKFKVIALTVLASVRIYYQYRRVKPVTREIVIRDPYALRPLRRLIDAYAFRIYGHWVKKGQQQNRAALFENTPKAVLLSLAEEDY

As for `CNc1nc(Nc2ccc(C(=O)N3CCOCC3)cc2OC)nc2[nH]cc(C#N)c12` [Example 1, 2-((2-methoxy-4-(morpholine-4-carbonyl)phenyl)amino)-4-(methylamino)-7H-pyrrolo[2,3-d]pyrimidine-5-carbonitrile], the remaining binding at 1 µM worked out at 71% in assay [1]; 92% in [2] (JAK1(JH1domain-catalytic)); 14% in assay [2] (JAK1(JH2domain-pseudokinase)); 82% in [3]; 95% in [4]; 95% in assay [5]. For the same compound, the remaining binding at 1 µM stood at 13% in [6], 4.5% in assay [7], 37% in assay [8] and 31% in assay [9].
On to `CC1(Nc2nc(Nc3cnn([C@H]4CCN(C5COC5)C[C@@H]4F)c3Cl)nc3[nH]cc(C#N)c23)CC1` [Example 52, 2-((5-chloro-1-((3S,4S)-3-fluoro-1-(oxetane-3-yl)piperidine-4-yl)-1H-pyrazole-4-yl)amino)((1-methylcyclopropyl)amino)-7H-pyrrolo[2,3-d]pyrimidine-5-carbonitrile], for which the remaining binding at 1 µM in assay [1] is 65%; in [2] (JAK1(JH1domain-catalytic)) it was 44%; in [2] (JAK1(JH2domain-pseudokinase)), 0%; in assay [3], 71%; in [4], 26%; in assay [5], 71%. Also, the remaining binding at 1 µM in assay [6] came to 11%; in assay [7] it was 0%; in [8], 0.3%; in assay [9] it was 5.5%.
With `CCNc1nc(Nc2ccc(C(=O)N3CCC(N4CCOCC4)CC3)cc2OC)nc2[nH]cc(C(F)(F)F)c12` [Example 104, (4-((4-(ethylamino)-5-(trifluoromethyl)-7H-pyrrolo[2,3-d]pyrimidine-2-yl)amino)-3-methoxyphenyl)(4-morpholinopiperidine-1-yl)methanone], the remaining binding at 1 µM in assay [1] stood at 78%; in [2] (JAK1(JH1domain-catalytic)) it was 100%; in [2] (JAK1(JH2domain-pseudokinase)), 55%; in assay [3] it was 96%; in assay [4] it was 96%; in assay [5] it was 100%. For the same compound, the remaining binding at 1 µM in [6] stood at 1%; in assay [7], 77%; in assay [8] it was 49%; in [9], 39%.
